Laboratory results as given in ChEMBL document CHEMBL6103599, “Design of Potent Menin-KMT2A Interaction Inhibitors with Improved In Vitro ADME Properties and Reduced hERG Affinity” (ACS Med Chem Lett, 2025).

Legend:
[1] = test system: MV4-11; assay: Antiproliferative activity against human MV4-11 cells assessed as cell growth inhibition measured after 7 days by CellTiter-Glo assay; format: functional, cell-based; conditions: MV4-11, 168 h
[2] = Apparent permeability across apical to basolateral side in MDR1 knockout dog MDCKII cells incubated for 2 hrs by LC-MS/MS analysis; format: ADME, cell-based, Canis lupus familiaris, MDCK-II; conditions: MDCK
[3] = Hepatic extraction ratio in male CD-1 mouse at 1 mg/kg, iv measured after 8 hrs by LC-MS/MS analysis; format: ADME, organism-based; conditions: in vivo, read-out: ERH
[4] = AUCinfinity in male CD-1 mouse at 1 mg/kg, iv measured after 8 hrs by LC-MS/MS analysis; format: ADME, organism-based; conditions: in vivo
[5] = Clearance in male CD-1 mouse at 1 mg/kg, iv measured after 8 hrs by LC-MS/MS analysis; format: ADME, organism-based; conditions: in vivo
[6] = Inhibition of His6-tagged MEN1 458-551 deletion A5T mutant (2 to 583 residues)/MLL (unknown origin) transfected in Escherichia coli BL21 (DE3) protein-protein interaction by TR-FRET assay; design: species or system Homo sapiens
[7] = Metabolic stability in human hepatocytes assessed as clearance by LC-MS analysis; format: ADME, cell-based, Hepatocyte; conditions: read-out: CLH
[8] = Half life in male CD-1 mouse at 1 mg/kg, iv measured after 8 hrs by LC-MS/MS analysis; format: ADME, organism-based; conditions: in vivo
[9] = Volume of distribution at steady state in male CD-1 mouse at 1 mg/kg, iv measured after 8 hrs by LC-MS/MS analysis; format: ADME, organism-based; conditions: in vivo, read-out: Vdss
[10] = target: Voltage-gated inwardly rectifying potassium channel KCNH2 (Homo sapiens, UniProt Q12809); assay: Inhibition of hERG expressed in CHO cells; format: toxicity, cell-based
[11] = test system: HL-60; assay: Cytotoxicity against human HL-60 cells; format: functional, cell-based
[12] = Metabolic stability in human liver microsomes assessed as clearance incubated for 20 mins by LC-MS/MS analysis; format: ADME, Microsome; conditions: read-out: CLH
[13] = Binding affinity to His6-tagged MEN1 458-551 deletion A5T mutant (unknown origin) assessed as dissociation constant by SPR analysis; design: species or system Homo sapiens
[14] = Cmax in male CD-1 mouse at 30 mg/kg, po measured after 8 hrs by LC-MS/MS analysis; format: ADME, organism-based; conditions: in vivo
[15] = target: Cytochrome P450 3A4 (Homo sapiens, UniProt P08684); assay: Inhibition of CYP3A4 (unknown origin) using midazolam as substrate; format: ADME
[16] = Drug excretion in male Sprague-Dawley rat urine at 3 mg/kg, iv measured after 8 hrs by LC-MS/MS analysis; format: ADME, organism-based; conditions: read-out: Drug excretion
[17] = Oral bioavailability in male CD-1 mouse at 30 mg/kg measured after 8 hrs by LC-MS/MS analysis; format: ADME, organism-based; conditions: in vivo

Sequence of Voltage-gated inwardly rectifying potassium channel KCNH2 (Q12809 whole entry): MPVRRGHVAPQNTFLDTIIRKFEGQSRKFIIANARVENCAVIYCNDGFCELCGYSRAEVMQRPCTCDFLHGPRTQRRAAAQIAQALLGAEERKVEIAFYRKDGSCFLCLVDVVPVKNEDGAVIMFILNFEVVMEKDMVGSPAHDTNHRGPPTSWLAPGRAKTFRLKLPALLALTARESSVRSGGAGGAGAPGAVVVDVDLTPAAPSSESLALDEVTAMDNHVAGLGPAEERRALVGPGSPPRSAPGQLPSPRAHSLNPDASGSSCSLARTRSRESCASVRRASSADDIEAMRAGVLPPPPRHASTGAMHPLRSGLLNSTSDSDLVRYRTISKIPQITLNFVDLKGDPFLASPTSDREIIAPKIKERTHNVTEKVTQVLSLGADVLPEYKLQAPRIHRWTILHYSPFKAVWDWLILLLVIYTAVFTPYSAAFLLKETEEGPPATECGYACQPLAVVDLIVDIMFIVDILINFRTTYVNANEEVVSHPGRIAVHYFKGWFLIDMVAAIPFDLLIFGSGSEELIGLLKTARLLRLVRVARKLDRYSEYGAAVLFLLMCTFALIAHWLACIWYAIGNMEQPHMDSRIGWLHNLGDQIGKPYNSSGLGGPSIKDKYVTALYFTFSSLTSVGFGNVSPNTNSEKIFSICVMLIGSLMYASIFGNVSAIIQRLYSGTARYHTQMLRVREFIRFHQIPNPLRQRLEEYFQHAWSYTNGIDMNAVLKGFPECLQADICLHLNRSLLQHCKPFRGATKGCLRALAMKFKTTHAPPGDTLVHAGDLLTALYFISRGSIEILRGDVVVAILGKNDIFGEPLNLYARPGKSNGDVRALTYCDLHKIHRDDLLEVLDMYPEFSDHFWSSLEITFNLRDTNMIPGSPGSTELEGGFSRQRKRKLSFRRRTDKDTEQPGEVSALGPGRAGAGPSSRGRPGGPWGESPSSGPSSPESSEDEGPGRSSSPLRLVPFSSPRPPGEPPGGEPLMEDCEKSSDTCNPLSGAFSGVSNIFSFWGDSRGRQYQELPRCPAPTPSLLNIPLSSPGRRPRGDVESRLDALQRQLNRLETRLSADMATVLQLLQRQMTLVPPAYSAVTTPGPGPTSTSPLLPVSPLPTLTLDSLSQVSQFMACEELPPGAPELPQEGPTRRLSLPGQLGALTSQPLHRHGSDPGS
Sequence of Cytochrome P450 3A4 (P08684 whole entry): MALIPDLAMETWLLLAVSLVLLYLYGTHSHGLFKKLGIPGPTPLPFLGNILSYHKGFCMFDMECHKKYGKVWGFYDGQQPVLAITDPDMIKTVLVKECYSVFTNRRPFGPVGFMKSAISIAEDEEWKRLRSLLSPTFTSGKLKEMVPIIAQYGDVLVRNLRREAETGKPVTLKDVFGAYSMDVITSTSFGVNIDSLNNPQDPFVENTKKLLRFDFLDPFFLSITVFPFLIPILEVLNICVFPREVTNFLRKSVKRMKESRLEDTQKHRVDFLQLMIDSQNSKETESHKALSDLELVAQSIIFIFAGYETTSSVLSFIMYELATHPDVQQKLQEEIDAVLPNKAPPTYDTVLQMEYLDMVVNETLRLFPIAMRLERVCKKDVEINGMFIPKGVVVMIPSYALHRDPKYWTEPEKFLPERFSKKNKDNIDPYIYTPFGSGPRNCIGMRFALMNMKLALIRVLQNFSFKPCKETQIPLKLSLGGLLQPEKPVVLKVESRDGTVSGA

IC50 [1] [nM]	Papp A→B at 2 h [2] [×10⁻⁶ cm/s]	IC50 [6] [nM]	CLint scaled [7] [mL/min/kg]	Compound	IC50 [10] [nM]	IC50 [11] [nM]	other results
10	30	4	7	CON(C(=O)c1cc(F)ccc1Oc1nncnc1N1CC2(CCN(CC3(C)CC3)CC2)C1)C(C)C			hepatic extraction ratio at 8 h [3]: 0.874; AUC(0-inf) [4]: 212 ng·h/mL; clearance [5]: 78.7 mL/min/kg; half-life [8]: 0.48 h; Vd [9]: 1.7 L/kg
48	8	23	7	C[C@@H]1COC[C@@H](C)N1C(=O)c1cc(F)ccc1Oc1nncnc1N1CC2(CCN(CC3(C)CC3)CC2)C1			
23		8		CCN(C(=O)c1cc(F)ccc1Oc1cncnc1N1CC2(CCN(CC3CCCCC3)CC2)C1)C(C)C	3500	> 5000	
166		18		CCN(C(=O)c1cc(F)ccc1Oc1cncnc1N1CC2(CCN(C3CCCC3)CC2)C1)C(C)C		> 5000	
345	6	5	11	CSC1(CN2CCC3(CC2)CN(c2ncnnc2Oc2ccc(F)cc2CN2CCCC2=O)C3)CC1			
58	7	11	8	CCN(C(=O)c1cc(F)ccc1Oc1nnccc1N1CC2(CCN(CC3(C)CC3)CC2)C1)C(C)C	28000		
112	9	6	4	CC1(CN2CCC3(CC2)CN(c2ncnnc2Oc2ccc(F)cc2CN2C(=O)CC4CC42)C3)CC1 (racemic)			CLint scaled [12]: 4 mL/min/kg; AUC(0-inf) [4]: 160 ng·h/mL; clearance [5]: 104 mL/min/kg; half-life [8]: 0.64 h; Vd [9]: 4.14 L/kg
19	7	4	4	C[C@@H]1COCC(=O)N1Cc1cc(F)ccc1Oc1nncnc1N1CC2(CCN(CC3(C)CC3)CC2)C1			Kd [13]: 0.05 nM
21	29	5	6	CCC1(CN2CCC3(CC2)CN(c2ncnnc2Oc2ccc(F)cc2CN2C(=O)COC[C@H]2C)C3)CC1			
> 5000		160		CCN(C(=O)c1cc(F)ccc1Oc1cncnc1N1CC2(CCN(C(C)=O)CC2)C1)C(C)C		> 5000	
231	23	6	27	C[C@@H]1CCCN1C(=O)c1cc(F)ccc1Oc1nncnc1N1CC2(CCN(CC3(C)CC3)CC2)C1			
12	42	8	14	CCN(C(=O)c1cc(F)ccc1Oc1nncnc1N1CC2(CCN(CC3(SC)CC3)CC2)C1)C(C)C	75000		
65	13	9	5	C[C@@H]1COC[C@H](C)N1C(=O)c1cc(F)ccc1Oc1nncnc1N1CC2(CCN(CC3(C)CC3)CC2)C1			
416		66		CCN(C(=O)c1cc(F)ccc1Oc1cncnc1N1CC2(CCN(CC(C)C)CC2)C1)C(C)C		> 5000	
20		13		CCN(C(=O)c1cc(F)ccc1Oc1cncnc1N1CC2(CCN(CC34CC(C3)C4)CC2)C1)C(C)C		> 5000	
40	9	4	3	C[C@@H]1CCC(=O)N1Cc1cc(F)ccc1Oc1nncnc1N1CC2(CCN(CC3(C)CC3)CC2)C1			hepatic extraction ratio at 8 h [3]: 0.574; AUC(0-inf) [4]: 323 ng·h/mL; clearance [5]: 51.6 mL/min/kg; half-life [8]: 1.77 h; Vd [9]: 5.48 L/kg
102		4		CCN(C(=O)c1cc(F)ccc1Oc1cncnc1N1CC2(CCN(CC3CCCC3)CC2)C1)C(C)C		> 5000	
190	8	5	6	CC1(CN2CCC3(CC2)CN(c2ncnnc2Oc2ccc(F)cc2CN2CCOCC2=O)C3)CC1			
72		12		CCN(C(=O)c1cc(F)ccc1Oc1cncnc1N1CC2(CCN(CC(C)(C)C)CC2)C1)C(C)C	2900	> 5000	
10		0.149		CCN(C(=O)c1cc(F)ccc1Oc1cncnc1N1CC2(CCN(C[C@H]3CC[C@H](NS(=O)(=O)CC)CC3)CC2)C1)C(C)C [REVUMENIB]	5000	> 5000	
314	4	62	6	CC1(CN2CCC3(CC2)CN(c2ncnnc2Oc2ccc(F)cc2C(=O)N2CCOCC2)C3)CC1	46000		
22	26	7	11	CCN(C(=O)c1cc(F)ccc1Oc1cncnc1N1CC2(CCN(CC3(C)CC3)CC2)C1)C(C)C	10800	> 5000	
53		12		CCN(C(=O)c1cc(F)ccc1Oc1cncnc1N1CC2(CCN(Cc3ccc(C#N)cc3)CC2)C1)C(C)C	< 1000	> 5000	
13	8	4	8	CSC1(CN2CCC3(CC2)CN(c2ncnnc2Oc2ccc(F)cc2CN2C(=O)COC[C@H]2C)C3)CC1			
502		33		CCN(C(=O)c1cc(F)ccc1Oc1cncnc1N1CC2(CCN(C[C@@H](O)C(F)(F)F)CC2)C1)C(C)C		> 5000	
19	35	4	10	CC(C)C1(CN2CCC3(CC2)CN(c2ncnnc2Oc2ccc(F)cc2CN2C(=O)COC[C@H]2C)C3)CC1			AUC(0-inf) [4]: 128 ng·h/mL; clearance [5]: 130 mL/min/kg; half-life [8]: 0.76 h; Vd [9]: 5.44 L/kg
74	3	8	5	CC1(CN2CCC3(CC2)CN(c2ncnnc2Oc2ccc(F)cc2C(=O)N2C4CCC2COC4)C3)CC1	65000		Cmax [14]: 5000 ng/mL; IC50 [15]: > 50000 nM; hepatic extraction ratio at 8 h [3]: 0.541; dose excreted at 8 h [16]: 22%; AUC(0-inf) [4]: 342 ng·h/mL; clearance [5]: 48.7 mL/min/kg; bioavailability [17]: 74%; half-life [8]: 1.68 h; Vd [9]: 4.34 L/kg
19	35	10	6	CCN(C(=O)c1cc(F)ccc1Oc1nncnc1N1CC2(CCN(CC3(C)CC3)CC2)C1)C(C)C	28000		AUC(0-inf) [4]: 92 ng·h/mL; clearance [5]: 129 mL/min/kg; half-life [8]: 2.22 h; Vd [9]: 14.1 L/kg
145	21	20	9	C[C@@H]1CCCCN1C(=O)c1cc(F)ccc1Oc1nncnc1N1CC2(CCN(CC3(C)CC3)CC2)C1			
58		8		CCN(C(=O)c1cc(F)ccc1Oc1cncnc1N1CC2(CCN(C(=O)C34CC5CC(CC3C5)C4)CC2)C1)C(C)C	> 100000	> 5000	
